Experimental findings from patent US20100256152A1, “NOVEL PHARMACEUTICAL COMPOSITION FOR TREATMENT OF SCHIZOPHRENIA” (ASTELLAS PHARMA INC., priority 2009, published 2010) are described below.

Series [1] has as its system methamphetamine induced hyperlocomotion. The series is described as follows: Methamphetamine induced hyperlocomotion model. Format: in vivo, male ddY mouse. The conditions noted are these: smallest oral dose giving significantly small activity vs solvent group; mouse; as free form. On the procedure:
Verification of the therapeutic effect on schizophrenia was carried out using a methamphetamine induced hyperlocomotion model. Methamphetamine is a psychostimulant, and is known to cause symptoms that are similar to schizophrenia by increasing the transmission in the dopaminergic neurons. The abnormal behavior produced when methamphetamine is administered to an animal is generally used as a screening method for a therapeutic drug for schizophrenia (Oka et al., 1993, J. Pharmacol. Exp. Ther., 264:158-165, herein incorporated by reference). That is, a male ddY mouse was placed in an activity monitoring apparatus, and after 30 minutes, methamphetamine was administered. After administering methamphetamine, the mouse was immediately returned to the monitoring apparatus, and the activity for one hour from immediately after the return was measured. For the measurement of the activity, a Supermex sensor manufactured by Muromachi Kikai Co., Ltd. was used. […] The solvent used was a 0.5% aqueous solution of methylcellulose. The statistical analysis was carried out between the solvent administered group and the drug administered groups, using Dunnett's test.
The test compounds (1) to (5) all suppressed methamphetamine induced hyperlocomotion.

For series [2], the system named is phencyclidine induced prolonged immobility. The series is described as follows: Phencyclidine induced prolonged immobility model (forced swimming test). The note with it: mouse; for phencyclidine induced prolonged immobility improving action (in words): oral administration; for Minimum effective dose (mg/kg p.o.) (Example 3): smallest oral dose giving significantly short immobility time vs solvent group, 1 h after administration, as free form. Format: in vivo, male ddY mouse. As to the method: Verification of the therapeutic effect on schizophrenia was carried out using a phencyclidine induced prolonged immobility model. Phencyclidine is a non-competitive antagonist of the N-methyl-D-aspartate receptor, a type of glutamate receptor, and abuse of this agent causes development of psychotic symptoms indistinguishable from those of schizophrenia. […] Forced swimming test is used as a screening assay for antidepressants, because immobility in this test is thought to reflect some aspect of depression such as lowering of motivation. Negative symptoms of schizophrenia also includes similar aspects, we could evaluate the efficacy of drugs for negative symptoms, such as apathy, using this test. Briefly, a male ddY mouse was gently placed in a cylindrical pool, and activity was measured for 3 min with SCANET (MV20-LAN, MELQUEST). Afterward immobility time was calculated with the SCANET file integrating software. Two days later, Mice were anesthetized with sodium pentobarbital. The Osmotic mini pumps (Alzet model 1002, DURECT Corporation) were subcutaneously implanted to mice. The pump infused saline or phencyclidine 1.2 mg/day/mouse with pumping rate of 0.25 μL/hour. Fourteen days after implantation, a test compound was administered to mice and an hour after administration, each mouse was gently placed in a cylindrical pool, and activity was measured for 3 min. Afterward immobility time was calculated. […] The solvent used was a 0.5% aqueous solution of methylcellulose. The statistical analysis was carried out between the solvent administered group and the drug administered groups, using Dunnett's test.

The subject of series [3] is phencyclidine induced prolonged finding latency. The series is described as follows: Water finding task in mice after neonatal treatment with phencyclidine. The note with it: mouse; for phencyclidine induced prolonged finding latency improving action (in words): oral administration; for Minimum effective dose (mg/kg p.o.) (Example 4): smallest oral dose giving significantly short finding latency vs solvent group, as free form. It is filed as in vivo, male ddY mice. On the procedure:
Verification of the therapeutic effect on schizophrenia was carried out using a water finding task in mice after neonatal treatment with phencyclidine. […] In addition, it has been reported that chronic treatment of PCP prolonged finding latency in the water-finding task (Mouri et al., 2007, Mol. Pharmacol., 180:152-60, herein incorporated by reference). Finding latency in the water-finding task provides a measure of latent learning in animals, which is thought to reflect attention. Attention is one of the most important domain of cognitive impairments in schizophrenia, we could evaluate the efficacy of drugs for cognitive impairments in schizophrenia using this task. Briefly, male ddY mice subcutaneously received PCP at a dose of 15 mg/kg or saline on postnatal day 7, 9 and 11. During the adult 7 weeks old, test compounds were orally administered to animals and 60 minutes later, the animals were placed in one corner of the open field and allowed to freely explore the training apparatus for 3 min. Immediately after the training trial, the animals were returned to their home cage and deprived of water until the test trial the next day. In the test trial, the mice were again placed individually in the test apparatus. The time between entering the alcove and drinking the water was measured. […] The solvent used was a 0.5% aqueous solution of methylcellulose. The statistical analysis was carried out between the solvent administered group and the drug administered groups, using Dunnett's test.

The next series concerns the target T1, BEC1 potassium channel (Homo sapiens, UniProt Q9ULD8).
T1 construct: expressed in transfected cells
T1 sequence (Q9ULD8 1-1083): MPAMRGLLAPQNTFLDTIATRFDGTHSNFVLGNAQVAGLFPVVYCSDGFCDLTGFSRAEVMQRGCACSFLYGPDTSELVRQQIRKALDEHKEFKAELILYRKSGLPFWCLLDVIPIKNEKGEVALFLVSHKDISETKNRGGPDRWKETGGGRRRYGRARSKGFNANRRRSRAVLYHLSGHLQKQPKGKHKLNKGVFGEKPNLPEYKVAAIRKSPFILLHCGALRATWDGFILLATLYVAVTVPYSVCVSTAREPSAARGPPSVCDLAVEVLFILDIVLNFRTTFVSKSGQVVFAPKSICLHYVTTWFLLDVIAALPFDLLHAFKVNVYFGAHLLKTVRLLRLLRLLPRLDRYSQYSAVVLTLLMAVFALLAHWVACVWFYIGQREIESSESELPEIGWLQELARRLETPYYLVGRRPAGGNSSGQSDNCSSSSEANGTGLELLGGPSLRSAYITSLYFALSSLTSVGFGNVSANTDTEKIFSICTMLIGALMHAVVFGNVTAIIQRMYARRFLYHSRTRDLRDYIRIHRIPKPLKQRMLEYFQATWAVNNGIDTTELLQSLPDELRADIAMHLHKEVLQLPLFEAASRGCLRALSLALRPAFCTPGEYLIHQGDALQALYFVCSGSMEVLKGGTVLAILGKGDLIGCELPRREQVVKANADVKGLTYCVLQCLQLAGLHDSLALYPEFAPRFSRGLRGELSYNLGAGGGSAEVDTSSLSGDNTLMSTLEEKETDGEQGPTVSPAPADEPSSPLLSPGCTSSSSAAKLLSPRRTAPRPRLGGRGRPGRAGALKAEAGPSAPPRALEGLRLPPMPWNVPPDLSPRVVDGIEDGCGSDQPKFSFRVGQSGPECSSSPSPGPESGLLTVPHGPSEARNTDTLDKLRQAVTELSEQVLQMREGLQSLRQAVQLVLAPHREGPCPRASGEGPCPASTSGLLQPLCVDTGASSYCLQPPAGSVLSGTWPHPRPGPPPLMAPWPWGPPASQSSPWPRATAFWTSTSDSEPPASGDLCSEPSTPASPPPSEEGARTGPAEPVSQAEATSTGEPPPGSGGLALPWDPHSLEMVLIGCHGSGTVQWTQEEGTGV
The series is described as follows: BEC1 inhibitory activity, 86Rb ion release from BEC1 expressing cells. Format: cell-based. The conditions noted are these: BEC1 stably expressing CHO (dhfr-deficient) cells, 100 mM KCl stimulation, 86Rb release; as free form; read-out: IC50 (μM) (Example 1). As to the method: Method for measuring BEC1 inhibitory activity of compound utilizing 86Rb ion release amount as index
The channel activity of BEC1 was measured according to the method described in U.S. Pat. No. 6,326,168 or U.S. Pat. No. 7,375,222, herein incorporated by reference, utilizing the release of the ions of radioactive isotope 86Rb from BEC1 expressing cells as an index. Specifically, when BEC1 expressing cells which had taken in 86Rb ions were stimulated with 100 mM KCl, the radioactivity released from the same cells was designated as the channel activity of BEC1. 86Rb ions were incorporated into cells by culturing (3 hours, 37° C.) BEC1 stably expressing cells in the presence of 86RbCl (0.5 μCi/ml), and the unincorporated 86Rb ions were removed by washing the cells three times with HEPES buffered physiological saline (pH 7.4, 2.5 mM KCl). The same cells were incubated for 15 minutes at room temperature in the presence of a DMSO solution containing the test compound and HEPES buffered physiological saline, and then were further incubated for 5 minutes at room temperature in the presence of a 100 mM KCl-containing HEPES buffer solution (pH 7.4) containing the same compound. The extracellular fluid was recovered, and then the remaining cells were lysed in 0.1 N NaOH and recovered. The Cherenkov radioactivities of the extracellular fluid and the cell lysate were respectively measured, and the sum was designated as the total radioactivity. The release amount of 86Rb ions was expressed as the percentage of the radioactivity of the extracellular fluid with respect to the total radiation activity. The value obtained in the presence of the compound was designated as a test value, the value obtained in the absence of the compound was designated as a control value, and the value obtained when the cells were not stimulated with 100 mM KCl was designated as a blank value. […] In addition, as for the BEC1 expressing cells, BEC1 stably expressing cells produced according to the method described in U.S. Pat. No. 6,326,168 or U.S. Pat. No. 7,375,222, herein incorporated by reference, using a dihydrofolate reductase (dhfr)-deficient strain of Chinese Hamster ovary cells, were used.

Counter-ions that a name gives are not always drawn.

As for `Fc1ccc(Nc2nc(NCc3ncccn3)nc(Nc3ccc(F)cc3)n2)cc1` (as salt: HCl) [Compound 2a, N,N′-bis(4-fluorophenyl)-N″-(pyrimidin-2-ylmethyl)-1,3,5-triazine-2,4,6-triamine], the melting point fell in the range of 183 to 186 °C.

As to `Fc1ccc(Nc2nc(NCc3ncccn3)nc(Nc3ccccc3)n2)cc1` [Compound 1, N-(4-fluorophenyl)-N′-phenyl-N″-(pyrimidin-2-ylmethyl)-1,3,5-triazine-2,4,6-triamine], the “Minimum effective dose (mg/kg p.o.) (Example 2)” value in series [1] is 0.1 mg/kg p.o. Further, in series [2], the “phencyclidine induced prolonged immobility improving action (in words)” value is reported as “suppressed phencyclidine induced prolongation of immobility time” and the “Minimum effective dose (mg/kg p.o.) (Example 3)” value worked out at 0.03 mg/kg p.o. In series [3], the “phencyclidine induced prolonged finding latency improving action (in words)” value is “suppressed phencyclidine induced prolongation of finding latency” and the “Minimum effective dose (mg/kg p.o.) (Example 4)” value is on record as 0.03 mg/kg p.o. Besides, the IC50 at BEC1 potassium channel was 0.077 µM.

With `Fc1ccc(Nc2nc(NCc3ncccn3)nc(Nc3ccc(F)cc3)n2)cc1` [Compound 2a, N,N′-bis(4-fluorophenyl)-N″-(pyrimidin-2-ylmethyl)-1,3,5-triazine-2,4,6-triamine], the “Minimum effective dose (mg/kg p.o.) (Example 2)” value in series [1] came out at 0.03 mg/kg p.o. The half-maximal inhibitory concentration (IC50) at BEC1 potassium channel was found to be 0.065 µM.

Consider `Fc1ccc(Nc2nc(NCc3ncccn3)nc(Nc3ccc(F)cc3)n2)cc1` [Compound 2b, N,N′-bis(4-fluorophenyl)-N″-(pyrimidin-2-ylmethyl)-1,3,5-triazine-2,4,6-triamine], for which, in series [2], the “phencyclidine induced prolonged immobility improving action (in words)” value is given as “suppressed phencyclidine induced prolongation of immobility time” and the “Minimum effective dose (mg/kg p.o.) (Example 3)” value is reported as 0.01 mg/kg p.o. In series [3], the “phencyclidine induced prolonged finding latency improving action (in words)” value is “suppressed phencyclidine induced prolongation of finding latency” and the “Minimum effective dose (mg/kg p.o.) (Example 4)” value came to 0.01 mg/kg p.o.

For the molecule `COc1ccc(Nc2nc(NCc3ncccn3)nc(Nc3ccc(F)cc3)n2)cc1` [Compound 3, N-(4-fluorophenyl)-N′-(4-methoxyphenyl)-N″-(pyrimidin-2-ylmethyl)-1,3,5-triazine-2,4,6-triamine], in series [1], the “Minimum effective dose (mg/kg p.o.) (Example 2)” value came to 0.03 mg/kg p.o. For the same molecule, the IC50 on BEC1 potassium channel was 0.092 µM.

On to `Fc1ccc(Nc2nc(NCc3ccncn3)nc(Nc3ccc(F)cc3)n2)cc1` [Compound 4, N,N′-bis(4-fluorophenyl)-N″-(pyrimidin-4-ylmethyl)-1,3,5-triazine-2,4,6-triamine], for which the “Minimum effective dose (mg/kg p.o.) (Example 2)” value in series [1] was found to be 0.01 mg/kg p.o. For the same molecule, the IC50 on BEC1 potassium channel amounted to 0.058 µM.

For `Cl.Fc1ccc(Nc2nc(NCc3ccnc(F)c3)nc(Nc3ccccc3)n2)cc1` [Compound 5, N-(4-fluorophenyl)-N′-[(2-fluoro-4-pyridyl)methyl]-N″-phenyl-1,3,5-triazine-2,4,6-triamine hydrochloride], the “Minimum effective dose (mg/kg p.o.) (Example 2)” value in series [1] is 1.0 mg/kg p.o.

`Cc1ccc(Nc2nc(NCc3ccnc(F)c3)nc(Nc3ccc(F)cc3)n2)cc1` [Compound 7, N-(4-fluorophenyl)-N′-[(2-fluoro-4-pyridyl)methyl]-N″-(4-methylphenyl)-1,3,5-triazine-2,4,6-triamine hydrochloride]: the IC50 at BEC1 potassium channel came out at 0.24 µM.

In the case of `COc1ccc(Nc2nc(NCc3ccnc(F)c3)nc(Nc3ccc(F)cc3)n2)cc1` [Compound 8, N-(4-fluorophenyl)-N′-[(2-fluoro-4-pyridyl)methyl]-N″-(4-methoxyphenyl)-1,3,5-triazine-2,4,6-triamine hydrochloride], the IC50 on BEC1 potassium channel came to 0.17 µM.

On to `COc1cccc(Nc2nc(NCc3ccnc(F)c3)nc(Nc3ccc(F)cc3)n2)c1` [Compound 10, N-(4-fluorophenyl)-N′-[(2-fluoro-4-pyridyl)methyl]-N″-(3-methoxyphenyl)-1,3,5-triazine-2,4,6-triamine hydrochloride], for which, on BEC1 potassium channel, the IC50 was 0.25 µM.

By melting point is commonly meant the temperature of the solid-liquid transition. For orientation: IC50 means the concentration at which inhibition is half-maximal.
